Experiments:
[1] = Plasma concentrations of A1 and A2 after oral administration, rats; type: in vivo; conditions: rat, n = 5; for concentration at 1.5 h: 1 H 30 MIN; for concentration: 3 H; for concentration at 0.25 h: 15 MIN; for concentration at 0.5 h: 30 MIN; for concentration at 0.75 h: 45 MIN
Procedure: (§1) The plasma absorption and clearance kinetics of the products A1 and A2 according to the invention were studied on different animal species after oral administration. A mixture A1 A2 in the proportions 70%/30% was used so as to be able to make a comparison with CNCC. The mixture A1 A2 and the CNCC were administered at equivalent doses and the plasma concentrations of A1 and A2 were measured as a function of time. cl (a) Experimental protocol
(§2) A solution of the mixture A1 A2 in distilled water is administered by stomach tube at a dose of 574 mg/m^2. A suspension of CNCC in olive oil is administered at a dose of 500 mg/m^2, also by stomach tube.
(§3) The blood, taken by cardiac puncture, is centrifuged rapidly at 4° C. The plasma (1 ml) is deposited on a cartridge of Extrelut® and extraction is carried out with 6 ml of methylene chloride. After evaporation, the dry extract is taken up in 150 μl of methylene chloride for chromatographic analysis.
(§4) Analysis of the plasma extracts for measuring the concentrations of A1 and A2 was performed by high performance liquid chromatography using the following technology:
(§5) Detector: Pye Unicam spectrophotometer (Philips)λ250 nm.
(§6) Elution carried out by means of a linear gradient ranging from methylene chloride 99.6%/ethanol 0.4% to methylene chloride 95%/ethanol 5% in 15 minutes

[2] = Plasma concentrations of A1 and A2 after oral administration, rabbits; type: in vivo; conditions: rabbit, n = 5; for concentration at 1.5 h: 1 H 30 MIN; for concentration: 3 H; for concentration at 4.5 h: 4 H 30 MIN; for concentration at 0.25 h: 15 MIN; for concentration at 0.5 h: 30 MIN; for concentration at 0.75 h: 45 MIN
Procedure: as §1, §2, §3, §4, §5, §6

leukemia L 1210 = assay: Antitumoral activity of A1 and A2 on leukemia L 1210 grafted i.p. in mice (ICIG); type: in vivo, mice (B6 D2 F1 OLA)
Procedure: This activity was also studied on mice carrying leukemia L 1210 grafted i.p. This experimental tumor is the one most frequently used in the primary screening of cytostatic drugs.
These tests were conducted in parallel in two laboratories: at Unit 71 of the Institut National de la Sante et de la Recberche Mediecale (INSERM), ClermontFerrand, and at the Institut de Cancerologie et d' Immunogenetique (ICIG), Villejuif.
On day D:0, three-month-old male B6 D2 F1 mice received 10^5 cells of the leukemia strain L 1210 by intraperitoneal administration. The animals are divided up into groups of 8 to 10 animals for the control groups and 6 to 8 animals for the treated groups. On days D:1, D:5 and D:9, the animals receive the treatment at different doses by intraperitoneal or intravenous administration. The CNCC is administered as a suspension in olive oil. The products according to the invention are administered in physiological serum. The mortality is recorded every day. The survival median was determined for the treated animals and the control animals. The results are considered to be positive if the index I= [formula] is greater than 125.
The value .infin. means that 50% to 100% of the animals have survived to day D:90.
The cytostatic activity oi A1 and A2 on leukemia L 1210 was evaluated on B6 D2 F1 OLA mice at ICIG.
ICIG also studied the antitumoral activity of each isomer A1 and A2, separately administered intravenously, on leukemia L 1210. […] Comparison of the active doses with those of CNCC is impossible because of the insolubility of CNCC, as mentioned previously.

[3] = Plasma concentrations of A1 and A2 after oral administration, mice; type: in vivo; conditions: mouse, n = 10; for concentration at 1.5 h: 1 H 30 MIN; for concentration: 3 H; for concentration at 4.5 h: 4 H 30 MIN; for concentration at 0.25 h: 15 MIN; for concentration at 0.5 h: 30 MIN; for concentration at 0.75 h: 45 MIN
Procedure: as §1, §2, §3, §4, §5, §6

[4] = Pharmacokinetic comparison of mixture A1 A2 with CNCC, all animal species; type: in vivo, mice, rats and rabbits; conditions: p.o.
Procedure: as §1, §2, §3, §4
The plasma concentrations of A1 and A2 after oral administration of either the mixture A1 A2 or CNCC to mice, rats and rabbits are reported in Table V.

[5] = after mixture A1 A2 574 mg/m^2 p.o.

Question: With `C[S+]([O-])CCN(N=O)C(=O)NCCCl` (centres unmarked) [Compound A1] as the compound, how does the concentration at 1.5 h ([1]; after CNCC 500 mg/m^2 p.o.) read?
Answer: Its concentration at 1.5 h is 20.3 µM.

Question: And the concentration at 1 h ([1]; after CNCC 500 mg/m^2 p.o.)?
Answer: Its concentration at 1 h is 18.4 µM.

Question: What about the concentration at 2 h ([1]; after CNCC 500 mg/m^2 p.o.) of the same compound?
Answer: The concentration at 2 h was 12.7 µM.

Question: And the concentration ([1]; after CNCC 500 mg/m^2 p.o.)?
Answer: Its concentration is 11.1 µM.

Question: What about the concentration at 4.5 h ([1]; after CNCC 500 mg/m^2 p.o., 4 H 30 MIN) of the same compound?
Answer: Its concentration at 4.5 h is 3.9 µM.

Question: What about the concentration at 5 min ([1]; after CNCC 500 mg/m^2 p.o.) of the same compound?
Answer: The concentration at 5 min was 2.8 µM.

Question: What about the concentration at 0.25 h ([1]; after CNCC 500 mg/m^2 p.o.) of the same compound?
Answer: Its concentration at 0.25 h is 8 µM.

Question: What about the concentration at 0.5 h ([1]; after CNCC 500 mg/m^2 p.o.) of the same compound?
Answer: The concentration at 0.5 h was 12 µM.

Question: What about the concentration at 0.75 h ([1]; after CNCC 500 mg/m^2 p.o.) of the same compound?
Answer: The concentration at 0.75 h was 14.8 µM.

Question: What about the concentration at 1.5 h [1, 5] of the same compound?
Answer: Its concentration at 1.5 h is 29.2 µM.

Question: And the concentration at 1 h [1, 5]?
Answer: Its concentration at 1 h is 32.9 µM.

Question: What about the concentration at 2 h [1, 5] of the same compound?
Answer: Its concentration at 2 h is 15.7 µM.

Question: What about the concentration [1, 5] of the same compound?
Answer: Its concentration is 7.3 µM.

Question: And the concentration at 5 min [1, 5]?
Answer: The concentration at 5 min was 22.3 µM.

Question: And the concentration at 0.25 h [1, 5]?
Answer: The concentration at 0.25 h was 42.4 µM.

Question: And the concentration at 0.5 h [1, 5]?
Answer: The concentration at 0.5 h was 52.9 µM.

Question: What about the concentration at 0.75 h [1, 5] of the same compound?
Answer: Its concentration at 0.75 h is 33.9 µM.

Question: What about the concentration at 1.5 h ([2]; after CNCC 500 mg/m^2 p.o.) of the same compound?
Answer: Its concentration at 1.5 h is 8.6 µM.

Question: What about the concentration at 2 h ([2]; after CNCC 500 mg/m^2 p.o.) of the same compound?
Answer: The concentration at 2 h was 7.4 µM.

Question: What about the concentration ([2]; after CNCC 500 mg/m^2 p.o.) of the same compound?
Answer: The concentration was 4.7 µM.

Question: What about the concentration at 4.5 h ([2]; after CNCC 500 mg/m^2 p.o.) of the same compound?
Answer: Its concentration at 4.5 h is 2.8 µM.

Question: And the concentration at 5 min ([2]; after CNCC 500 mg/m^2 p.o.)?
Answer: The concentration at 5 min was 5 µM.

Question: What about the concentration at 0.25 h ([2]; after CNCC 500 mg/m^2 p.o.) of the same compound?
Answer: Its concentration at 0.25 h is 9.4 µM.

Question: What about the concentration at 0.5 h ([2]; after CNCC 500 mg/m^2 p.o.) of the same compound?
Answer: The concentration at 0.5 h was 10.6 µM.

Question: What about the concentration at 0.75 h ([2]; after CNCC 500 mg/m^2 p.o.) of the same compound?
Answer: Its concentration at 0.75 h is 10 µM.

Question: And the concentration at 1.5 h [2, 5]?
Answer: Its concentration at 1.5 h is 27 µM.

Question: What about the concentration at 1 h ([2]; after mixture A1 A2 574 mg/m^2 p.o., 1 H) of the same compound?
Answer: The concentration at 1 h was 39.4 µM.

Question: What about the concentration at 2 h [2, 5] of the same compound?
Answer: The concentration at 2 h was 19.4 µM.

Question: And the concentration [2, 5]?
Answer: Its concentration is 10.6 µM.

Question: And the concentration at 4.5 h [2, 5]?
Answer: Its concentration at 4.5 h is 3.8 µM.

Question: What about the concentration at 5 min [2, 5] of the same compound?
Answer: The concentration at 5 min was 26.7 µM.

Question: What about the concentration at 0.25 h [2, 5] of the same compound?
Answer: The concentration at 0.25 h was 28.5 µM.

Question: What about the concentration at 0.5 h [2, 5] of the same compound?
Answer: The concentration at 0.5 h was 41 µM.

Question: And the concentration at 0.75 h [2, 5]?
Answer: The concentration at 0.75 h was 39.2 µM.

Question: And the “T/C × 100 (cell: toxic)” value (leukemia L 1210; 60 mg/kg i.v.)?
Answer: Its value is “toxic”.

Question: And the “antitumoral activity (in words)” value (leukemia L 1210; i.v., isomers separately)?
Answer: The value was “low activity”.

Question: And the concentration at 1.5 h ([3]; after CNCC 500 mg/m^2 p.o.)?
Answer: Its concentration at 1.5 h is 26.2 µM.

Question: And the concentration at 1 h ([3]; after CNCC 500 mg/m^2 p.o.)?
Answer: Its concentration at 1 h is 37.1 µM.

Question: And the concentration at 2 h ([3]; after CNCC 500 mg/m^2 p.o.)?
Answer: The concentration at 2 h was 20.2 µM.

Question: What about the concentration ([3]; after CNCC 500 mg/m^2 p.o.) of the same compound?
Answer: The concentration was 11 µM.

Question: And the concentration at 4.5 h ([3]; after CNCC 500 mg/m^2 p.o.)?
Answer: The concentration at 4.5 h was 6.5 µM.

Question: What about the concentration at 5 min ([3]; after CNCC 500 mg/m^2 p.o.) of the same compound?
Answer: Its concentration at 5 min is 13.7 µM.

Question: And the concentration at 0.25 h ([3]; after CNCC 500 mg/m^2 p.o.)?
Answer: The concentration at 0.25 h was 34.2 µM.

Question: What about the concentration at 0.5 h ([3]; after CNCC 500 mg/m^2 p.o.) of the same compound?
Answer: The concentration at 0.5 h was 71.4 µM.

Question: What about the concentration at 0.75 h ([3]; after CNCC 500 mg/m^2 p.o.) of the same compound?
Answer: Its concentration at 0.75 h is 32.8 µM.

Question: And the concentration at 1.5 h [3, 5]?
Answer: The concentration at 1.5 h was 35.4 µM.

Question: What about the concentration at 1 h [3, 5] of the same compound?
Answer: The concentration at 1 h was 88 µM.

Question: And the concentration at 2 h [3, 5]?
Answer: Its concentration at 2 h is 23.3 µM.

Question: What about the concentration [3, 5] of the same compound?
Answer: Its concentration is 10.1 µM.

Question: What about the concentration at 4.5 h [3, 5] of the same compound?
Answer: Its concentration at 4.5 h is 4.3 µM.

Question: And the concentration at 5 min [3, 5]?
Answer: The concentration at 5 min was 208 µM.

Question: What about the concentration at 0.25 h [3, 5] of the same compound?
Answer: The concentration at 0.25 h was 206 µM.

Question: What about the concentration at 0.5 h [3, 5] of the same compound?
Answer: The concentration at 0.5 h was 177 µM.

Question: What about the concentration at 0.75 h [3, 5] of the same compound?
Answer: The concentration at 0.75 h was 124 µM.

Question: What about the “bioavailability compared with CNCC (in words)” value [4] of the same compound?
Answer: The value was “greater than that of CNCC”.

Question: And the “plasma concentrations after A1 A2 compared with after CNCC (in words)” value ([4]; equivalent doses, whatever the animal species)?
Answer: Its value is “much higher”.
